Test results as given in patent US20260258402A1, “DEVICE FOR DETERMINING MOLECULAR INTERACTIONS” (Depixus SAS, priority 2023, published 2026).

Columns and labels:
[1] = biological target: E3 ligase CEREBLON (in complex with its binding partner DDB1), the neo-target GSPT1 (Homo sapiens, UniProt P15170+Q96SW2); experiment: Tertiary complex formation between CRBN/DDB1 and GSPT1 with a molecular glue, on the nucleic acid scaffold (force cycles); details: for formation / stabilization of the tertiary complex CEREBLON-DDB1 / GSPT1 in the presence of the molecular glue: FIG. 27 and 28, force reduced to 0.01 pN to allow interaction
E3 ligase CEREBLON (in complex with its binding partner DDB1), the neo-target GSPT1, sequence (Q96SW2 whole entry): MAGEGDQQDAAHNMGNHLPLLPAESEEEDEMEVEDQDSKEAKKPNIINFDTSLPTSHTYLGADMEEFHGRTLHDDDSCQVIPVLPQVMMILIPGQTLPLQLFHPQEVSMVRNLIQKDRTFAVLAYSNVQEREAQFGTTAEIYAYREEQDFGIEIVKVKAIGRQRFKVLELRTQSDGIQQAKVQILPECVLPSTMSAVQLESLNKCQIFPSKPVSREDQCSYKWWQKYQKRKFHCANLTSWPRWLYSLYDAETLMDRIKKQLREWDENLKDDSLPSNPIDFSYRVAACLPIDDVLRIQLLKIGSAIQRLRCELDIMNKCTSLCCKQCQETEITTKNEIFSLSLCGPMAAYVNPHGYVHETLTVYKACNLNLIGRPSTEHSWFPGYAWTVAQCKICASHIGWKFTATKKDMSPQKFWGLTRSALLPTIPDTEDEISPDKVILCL
E3 ligase CEREBLON (in complex with its binding partner DDB1), the neo-target GSPT1, sequence (Q16531 whole entry partner): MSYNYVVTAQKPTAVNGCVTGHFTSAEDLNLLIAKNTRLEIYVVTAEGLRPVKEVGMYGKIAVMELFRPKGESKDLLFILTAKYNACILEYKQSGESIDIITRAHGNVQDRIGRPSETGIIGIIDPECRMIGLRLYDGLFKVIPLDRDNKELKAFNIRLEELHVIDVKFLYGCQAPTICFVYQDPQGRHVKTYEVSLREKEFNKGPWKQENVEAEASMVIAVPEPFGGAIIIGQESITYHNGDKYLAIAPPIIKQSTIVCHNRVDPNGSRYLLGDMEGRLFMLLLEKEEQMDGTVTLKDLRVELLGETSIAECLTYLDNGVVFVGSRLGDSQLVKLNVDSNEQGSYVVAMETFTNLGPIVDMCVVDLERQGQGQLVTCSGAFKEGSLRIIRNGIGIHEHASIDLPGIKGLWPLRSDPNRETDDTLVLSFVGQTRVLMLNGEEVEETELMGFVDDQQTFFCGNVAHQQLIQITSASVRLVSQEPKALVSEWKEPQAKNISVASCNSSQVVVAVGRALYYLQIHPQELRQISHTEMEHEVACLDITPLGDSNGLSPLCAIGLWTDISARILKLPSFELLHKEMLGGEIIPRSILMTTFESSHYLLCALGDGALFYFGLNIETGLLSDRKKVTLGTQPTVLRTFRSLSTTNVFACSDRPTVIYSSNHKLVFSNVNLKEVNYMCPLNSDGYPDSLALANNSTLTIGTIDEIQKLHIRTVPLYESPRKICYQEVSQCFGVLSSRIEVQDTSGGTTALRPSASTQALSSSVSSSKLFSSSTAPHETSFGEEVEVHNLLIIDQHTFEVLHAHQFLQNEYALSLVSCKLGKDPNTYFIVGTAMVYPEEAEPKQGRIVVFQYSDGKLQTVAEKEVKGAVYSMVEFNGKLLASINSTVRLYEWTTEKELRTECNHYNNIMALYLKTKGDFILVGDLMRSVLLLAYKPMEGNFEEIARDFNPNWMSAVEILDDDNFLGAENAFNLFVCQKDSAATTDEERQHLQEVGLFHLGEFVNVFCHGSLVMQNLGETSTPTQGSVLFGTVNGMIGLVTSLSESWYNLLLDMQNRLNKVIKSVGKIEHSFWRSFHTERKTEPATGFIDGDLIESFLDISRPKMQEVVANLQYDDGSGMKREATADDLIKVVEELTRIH
E3 ligase CEREBLON (in complex with its binding partner DDB1), the neo-target GSPT1, sequence (P15170 whole entry): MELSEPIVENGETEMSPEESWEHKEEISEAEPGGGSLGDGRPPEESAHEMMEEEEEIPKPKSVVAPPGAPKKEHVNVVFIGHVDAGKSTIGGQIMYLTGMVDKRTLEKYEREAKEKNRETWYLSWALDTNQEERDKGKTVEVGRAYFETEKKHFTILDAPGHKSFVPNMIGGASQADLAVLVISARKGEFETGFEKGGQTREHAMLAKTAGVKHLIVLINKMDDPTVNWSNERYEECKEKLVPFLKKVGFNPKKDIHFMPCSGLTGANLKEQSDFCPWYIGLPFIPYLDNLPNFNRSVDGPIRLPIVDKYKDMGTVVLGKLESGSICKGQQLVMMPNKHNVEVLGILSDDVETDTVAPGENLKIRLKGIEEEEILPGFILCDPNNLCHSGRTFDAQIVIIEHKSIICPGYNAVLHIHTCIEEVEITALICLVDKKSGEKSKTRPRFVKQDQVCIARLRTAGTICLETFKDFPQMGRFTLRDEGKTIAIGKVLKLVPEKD
Method: (§3) Briefly, a reference elongation length of a nucleic acid scaffold present in a flow cell was determined at a constant force. Next, a single stranded polynucleotide containing the complementary sequence of the first molecule binding sequence as well as an amine group at the 5′ end (SEQ ID NO: 23) was coupled to candidate protein (CRBN and its binding partner DDB1 that form the E3 ligase complex) by a covalent conjugation (esterification via EDC). In parallel, a second single stranded polynucleotide containing the complementary sequence of the second molecule binding sequence as well as an amine group at the 3′ end (SEQ ID NO: 34) was coupled to candidate protein (GSTP1 neo-substrat of CRBN) by a covalent conjugation (esterification via EDC). A first candidate molecule conjugated to a first polynucleotide and a second candidate molecule covalently conjugated to a second polynucleotide are sequentially injected into the flow cell to anchor them on to the nucleic acid scaffold and form a screening nucleic acid scaffold (FIGS. 27 and 28). Then, a force of 2 pN was applied to determine the maximal elongation length. The force was then reduced to 0.01 pN to allow the two proteins to interact. If the two candidate molecules have binding interaction between them, upon increasing the force back to 2 pN, the elongation observed would be less than the full extension of the screening nucleic acid scaffold. If the two candidate molecules have no binding interaction between them or weaker binding interaction between them than the applied force, the nucleic acid scaffold would fully stretch. The two proteins are not believed to have a native interaction. […] Various concentration of compound can be performed to measure the Kon and Koff of interaction in presence of the compound.

[2] = test system: double stranded blunt end substrates; experiment: NHEJ complex formation on two double stranded blunt end substrates on the scaffold (force cycles); format: binding; details: for role in the complex formed on the blunt end adapters: FIG. 25B, Ku70/80 and APFL injected together, 2 pN
Method: The system described in Example 1 and Example 2 was used for determining binding kinetics between two substrates and proteins that form a Non-Homologous End Joining (NHEJ) complex. The NHEJ complex recognizes double stranded blunt ends and repair these lesions in the cell. Accordingly, two substrates, each comprising a single stranded carrier polynucleotide and a candidate molecule comprising a double stranded blunt end were prepared, wherein the single stranded carrier polynucleotide was complementary to a molecule binding sequence of a nucleic acid scaffold. The double stranded blunt end was prepared by annealing twice two oligos together (SEQ ID NOS: 14 and 15, as well as SEQ ID NOS: 17 and 18 at 10 μM each in PBS).
(§1) Because each of the proposed sequences contained the glue sequence for first and second molecule binding sequence respectively, the substrates could be directed to a specific location on the nucleic acid scaffold. Accordingly, the two substrates for the NHEJ complex were anchored to two molecule binding sequences of the nucleic acid scaffold to form a screening nucleic acid scaffold. The excess substrates were washed away. A reference elongation length of a screening nucleic acid scaffold was determined by applying 2 pN force in the absence of the substrates.
(§2) Next, two candidate proteins, KU70/80 complex as well as the APFL protein together into PBS 1X, were injected within the flow cell. The flow was stop and force cycles experiments were initiated. Blockage traces were recorded at 0.1 pN and 2 pN. At 0.1 pN force, the screening nucleic acid scaffold was unstructured, which allowed the two blunt ends to be brought in close proximity. […] Because the method was a non-destructive process, the force cycles were repeated multiple times to further probe the interaction.
The system described in Example 1 and Example 2 was used for determining binding kinetics between two substrates and proteins that form a Non-Homologous End Joining (NHEJ) complex. The NHEJ complex recognizes double stranded blunt ends and repairs these lesions in the cell. Accordingly, two substrates, each comprising a single stranded carrier polynucleotide and a candidate molecule comprising a double stranded blunt end were prepared, wherein the single stranded carrier polynucleotide was complementary to a molecule binding sequence of a nucleic acid scaffold. The two double stranded blunt end adapters were prepared by annealing in two separate tubes two oligos together (SEQ ID NOS: 14 and 15, as well as SEQ ID NOS: 17 and 18 at 10 μM each in a buffer containing: 50 mM NaCl, 10 mM Tris-HCl, 10 mM MgCl2, 1 mM DTT at pH 7.9 @ 25° C.).
as §1, with “Because” for “Because each of”, “system was based on” for “sequences contained”, “protein complex recognizing blunt ends DNA,” for “glue sequence for first and second molecule binding sequence respectively,”, “applying force cycles at three step forces: 0.01,” for “applying”, “2 and 20” for “2”
as §2, with “a buffer containing: 20 mM Hepes-KOH PH7.8, 100 mM KCL, 5 mM MgCl2, 1 mM DTT, 0.5 mg/mL BSA, and they” for “PBS 1X,”, “Force cycles” for “Blockage traces”, “were the force varies between three plateau: 0.01 pN, 2” for “at 0.1”, “20 pN (FIG. 25A).” for “2 pN.”, “0.01” for “0.1”

[3] = biological target: E3 ligase CEREBLON (in complex with its binding partner DDB1), the neo-substrate IKAROS1 (Homo sapiens, UniProt Q13422+Q96SW2)
E3 ligase CEREBLON (in complex with its binding partner DDB1), the neo-substrate IKAROS1, sequence (Q13422 whole entry): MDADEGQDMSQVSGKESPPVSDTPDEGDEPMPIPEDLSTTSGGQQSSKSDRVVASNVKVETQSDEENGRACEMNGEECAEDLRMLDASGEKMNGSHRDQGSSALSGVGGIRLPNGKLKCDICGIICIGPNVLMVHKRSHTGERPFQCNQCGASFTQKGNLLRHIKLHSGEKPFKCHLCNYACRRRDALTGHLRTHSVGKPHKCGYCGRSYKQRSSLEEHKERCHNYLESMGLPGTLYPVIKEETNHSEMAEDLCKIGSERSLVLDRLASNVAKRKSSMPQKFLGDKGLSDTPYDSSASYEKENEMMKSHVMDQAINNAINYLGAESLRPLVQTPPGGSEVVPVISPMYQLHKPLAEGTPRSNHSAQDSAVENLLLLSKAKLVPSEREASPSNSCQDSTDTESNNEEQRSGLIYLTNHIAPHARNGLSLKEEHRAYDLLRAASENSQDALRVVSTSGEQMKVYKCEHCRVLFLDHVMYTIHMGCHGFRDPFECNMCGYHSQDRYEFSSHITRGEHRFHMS
E3 ligase CEREBLON (in complex with its binding partner DDB1), the neo-substrate IKAROS1, sequence (Q16531 whole entry, further chain): as the sequence (Q16531 whole entry partner) above
E3 ligase CEREBLON (in complex with its binding partner DDB1), the neo-substrate IKAROS1, sequence (Q96SW2 whole entry): as the sequence (Q96SW2 whole entry) above
Method: as §3

[4] = Example 3, both proteins injected together in PBS 1X, force cycles 0.1 pN and 2 pN
[5] = Example 12, both proteins injected together, force cycles 0.01, 2 and 20 pN

| Molecule | formation / stabilization of the tertiary complex CEREBLON-DDB1 / GSPT1 in the presence of the molecular glue [1] | blockage of scaffold stretching (complex on the two blunt end substrates) [2, 4] | blockage of scaffold stretching (complex on the two blunt end substrates) [2, 5] | role in the complex formed on the blunt end adapters [2] | further results |
| --- | --- | --- | --- | --- | --- |
| Cc1ccc(NC(=O)NCc2ccc3c(c2)CN(C2CCC(=O)NC2=O)C3=O)cc1Cl (centres unmarked) [CC885] | greatly stabilizes the complex |  |  |  | force needed to break the tertiary complex ([1]; FIG. 27, CEREBLON-DDB1 / GSPT1): 20 pN; time to reform the complex when the force is reduced to 0.01 pN ([1]; FIG. 27, after breaking at 20 pN): few second |
| KU70/80: KU70/80 complex, which binds at the double stranded breaks (NHEJ) |  | one or more transient blockages were observed | one or more transient blockages were observed | form at the blunt end of both adapters |  |
| Nc1cccc2c1C(=O)N(C1CCC(=O)NC1=O)C2=O (centres unmarked) [pomalidomide] |  |  |  |  | force the tertiary complex can sustain ([3]; FIG. 29): up to 2 pN; formation of the tertiary complex CEREBLON-DDB1 / IKAROS1 upon addition of the molecular glue ([3]; FIG. 29): strong tertiary complex is formed; interaction between CRBN E3 ligase and IKZF1 in presence of the compound ([3]; compound at 1 nM): the interaction was observed |
| O=C1CCC(N2C(=O)c3ccccc3C2=O)C(=O)N1 (centres unmarked) [thalidomide] | possible to observe formation of the tertiary complex |  |  |  | strength of the tertiary complex interaction (in words) ([1]; FIG. 28, compared with CC885): the interaction is weaker and can be broken even at low force |
| APFL: APFL protein that bridges Ku70/80 complexes in the NHEJ complex (protein, UniProt Q8IW19 1-511, looked up) Aprataxin and PNK-like factor: MSGGFELQPRDGGPRVALAPGETVIGRGPLLGITDKRVSRRHAILEVAGGQLRIKPIHTNPCFYQSSEKSQLLPLKPNLWCYLNPGDSFSLLVDKYIFRILSIPSEVEMQCTLRNSQVLDEDNILNETPKSPVINLPHETTGASQLEGSTEIAKTQMTPTNSVSFLGENRDCNKQQPILAERKRILPTWMLAEHLSDQNLSVPAISGGNVIQGSGKEEICKDKSQLNTTQQGRRQLISSGSSENTSAEQDTGEECKNTDQEESTISSKEMPQSFSAITLSNTEMNNIKTNAQRNKLPIEELGKVSKHKIATKRTPHKEDEAMSCSENCSSAQGDSLQDESQGSHSESSSNPSNPETLHAKATDSVLQGSEGNKVKRTSCMYGANCYRKNPVHFQHFSHPGDSDYGGVQIVGQDETDDRPECPYGPSCYRKNPQHKIEYRHNTLPVRNVLDEDNDNVGQPNEYDLNDSFLDDEEEDYEPTDEDSDWEPGKEDEEKEDVEELLKEAKRFMKRK |  | one or more transient blockages were observed | one or more transient blockages were observed | bridges these complexes |  |
